According to ChEMBL document CHEMBL1201862, “PubChem BioAssay data set” (2004):
The source made the active and inactive calls.

Key:
Cytochrome P450 2D6 = Cytochrome P450 2D6 (Homo sapiens, UniProt P10635); test: qHTS Assay for Inhibitors and Substrates of Cytochrome P450 2D6. [Related pubchem assays: 410 ]; format: ADME; conditions: read-out: Potency
[1] = biological target: T1, Alkaline phosphatase, tissue-nonspecific isozyme (Homo sapiens, UniProt P05186)
T1 sequence (P05186 whole entry): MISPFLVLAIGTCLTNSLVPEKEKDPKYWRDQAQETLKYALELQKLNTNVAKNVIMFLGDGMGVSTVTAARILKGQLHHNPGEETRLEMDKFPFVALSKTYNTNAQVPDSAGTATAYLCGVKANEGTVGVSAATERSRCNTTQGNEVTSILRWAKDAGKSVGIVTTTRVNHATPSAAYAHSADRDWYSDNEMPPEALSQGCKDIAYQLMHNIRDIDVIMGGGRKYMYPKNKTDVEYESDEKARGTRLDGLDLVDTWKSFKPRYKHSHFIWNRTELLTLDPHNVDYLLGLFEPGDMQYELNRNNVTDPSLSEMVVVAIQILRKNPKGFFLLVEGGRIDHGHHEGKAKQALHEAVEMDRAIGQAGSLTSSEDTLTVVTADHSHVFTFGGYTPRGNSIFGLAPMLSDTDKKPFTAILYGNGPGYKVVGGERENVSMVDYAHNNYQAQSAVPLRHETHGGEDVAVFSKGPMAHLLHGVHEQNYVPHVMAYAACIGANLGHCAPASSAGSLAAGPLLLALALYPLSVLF

[2] = CCR5-tropic HIV-1 fusion blockers – cell-based, CCR5-tropic Env, dose response (AID 2279); format: functional
[3] = biological target: T2, High affinity choline transporter 1 (Homo sapiens, UniProt Q9GZV3); test: human choline transporter blockers, potency – cell-based, 5-point CRC, membrane potential dye, dose response (AID 504840); format: functional
T2 sequence (Q9GZV3 whole entry): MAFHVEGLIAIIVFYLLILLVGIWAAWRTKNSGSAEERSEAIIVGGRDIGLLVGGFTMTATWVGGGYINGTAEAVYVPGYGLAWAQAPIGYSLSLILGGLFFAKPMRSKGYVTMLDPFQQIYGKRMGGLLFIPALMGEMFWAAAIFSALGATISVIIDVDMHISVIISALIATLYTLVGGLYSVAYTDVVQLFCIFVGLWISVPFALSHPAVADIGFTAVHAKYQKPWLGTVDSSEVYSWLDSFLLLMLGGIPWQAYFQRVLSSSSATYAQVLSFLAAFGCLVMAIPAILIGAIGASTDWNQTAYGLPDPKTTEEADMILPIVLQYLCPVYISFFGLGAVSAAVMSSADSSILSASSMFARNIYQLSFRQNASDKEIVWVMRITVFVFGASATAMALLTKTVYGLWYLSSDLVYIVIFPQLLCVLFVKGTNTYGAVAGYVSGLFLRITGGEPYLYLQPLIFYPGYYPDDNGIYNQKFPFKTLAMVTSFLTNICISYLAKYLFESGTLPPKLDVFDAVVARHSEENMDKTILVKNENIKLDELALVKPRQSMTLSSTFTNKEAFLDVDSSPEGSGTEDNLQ

[4] = biological target: T2, High affinity choline transporter 1; test: human choline transporter blockers, potency – cell-based, 10-point CRC, membrane potential dye, dose response (AID 588401); format: functional;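 further: membrane potential dye fluorescence of choline-evoked depolarization via CHT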
[5] = biological target: C-C chemokine receptor type 6 (Homo sapiens, UniProt P51684); test: antagonism of CCR6 beta-arrestin recruitment – cell-based, luminescent beta-arrestin readout, dose response (AID 504728); format: functional
Beta-galactosidase = Beta-galactosidase (Escherichia coli, UniProt Q8VNN2); test: detection-enzyme interference by beta-gal modulators – biochemical, E. coli enzyme, set 3, artefact control for CCR6 antagonist project, dose response (AID 504712); format: functional
[6] = biological target: T3, Polyadenylate-binding protein 1 (Homo sapiens, UniProt P11940); test: MLLE binding blockers, Cy5 peptide tracer – biochemical, fluorescence polarization, Cy5-PAM2 peptide, secondary, miRNA deadenylation inhibitor project, dose response (AID 602260); format: functional; conditions: read-out: IC50_Mean
[7] = biological target: T3, Polyadenylate-binding protein 1; test: MLLE domain peptide-binding blockers, IC50 – biochemical, fluorescence polarization, FITC-PAM2 peptide, dose response (AID 602259); format: functional; conditions: read-out: IC50_Mean
[8] = A Cell Based Assay for the Identification of Probe candidate Compounds with Anti- Venezuelan Equine Encephalitis virus. [Related pubchem assays: 2409, 2419, 1621, 2238, 2405, 2024, 2065, 2402, 2414, 1635, 1650, 2244 ]; format: functional
[9] = A Cell Based Secondary Assay To Explore Cytotoxicity of Compounds that Sensitize Mycobacterium Tuberculosis to Beta-Lactam Antibiotics.; format: functional
[10] = biological target: Melanin-concentrating hormone receptor 1 (Homo sapiens, UniProt Q99705); test: Late-stage fluorescence-based counterscreen for antagonists of the G-protein coupled receptor 7 (GPR7): cell-based dose response assay to identify antagonists of the melanin-concentrating hormone receptor 1 (MCHR1). [Related pubchem assays (depositor defined):AID1861, AID1880, AID1952, AID2148, AID2251, AID2257, AID485339]; format: functional;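 further: stimulated with 30 nM MCH peptide agonist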
[11] = test system: Streptococcus sp. 'group A'; test: Streptococcus pyogenes SK(-)GAS viability under kanamycin – luminescence, BacTiterGlo, confirmation, counter-screen for streptokinase expression inhibitor project, dose response (AID 1900); format: functional, organism-based
[12] = biological target: T4, Voltage-gated N-type calcium channel alpha-1B subunit/Amyloid beta A4 precursor protein-binding family A member 1 (Homo sapiens, UniProt Q00975+Q02410); format: protein assay
Streptokinase A = biological target: T5, Streptokinase A (Streptococcus pyogenes serotype M1, UniProt P10520); test: viability-normalized secreted streptokinase activity reduction – plasminogen activation absorbance, OD405, dose response (AID 1914); format: functional, Streptococcus pyogenes M1 GAS;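 further: secreted streptokinase activity via plasminogen activation per viability signal from cell pellet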
T5 sequence (P10520 whole entry): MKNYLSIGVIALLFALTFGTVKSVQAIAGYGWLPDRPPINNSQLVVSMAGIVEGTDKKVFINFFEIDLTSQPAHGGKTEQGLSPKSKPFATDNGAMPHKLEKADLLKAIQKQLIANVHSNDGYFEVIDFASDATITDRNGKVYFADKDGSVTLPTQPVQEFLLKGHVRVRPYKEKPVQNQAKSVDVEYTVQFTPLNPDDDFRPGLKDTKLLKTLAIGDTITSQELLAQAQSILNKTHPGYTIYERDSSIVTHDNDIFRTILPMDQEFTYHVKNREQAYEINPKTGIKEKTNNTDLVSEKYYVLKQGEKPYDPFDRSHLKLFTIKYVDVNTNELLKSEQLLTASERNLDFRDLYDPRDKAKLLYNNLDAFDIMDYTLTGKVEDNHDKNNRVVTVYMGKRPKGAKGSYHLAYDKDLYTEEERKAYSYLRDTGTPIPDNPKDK

[13] = biological target: T4, Voltage-gated N-type calcium channel alpha-1B subunit/Amyloid beta A4 precursor protein-binding family A member 1; format: protein assay; remark: listed apart in the source
[14] = biological target: Induced myeloid leukemia cell differentiation protein Mcl-1 (Homo sapiens, UniProt Q07820); format: functional
Streptococcus = test: GAS UMAA2166 growth inhibition – luminescence, BacTiterGlo, counter-screen for streptokinase expression inhibitor project, dose response (AID 1915); format: functional, organism-based;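 further: potency for reduction of bacterial viability or growth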
[15] = biological target: Glyceraldehyde-3-phosphate dehydrogenase (Homo sapiens, UniProt P04406)
Sequence of Glyceraldehyde-3-phosphate dehydrogenase (P04406 whole entry): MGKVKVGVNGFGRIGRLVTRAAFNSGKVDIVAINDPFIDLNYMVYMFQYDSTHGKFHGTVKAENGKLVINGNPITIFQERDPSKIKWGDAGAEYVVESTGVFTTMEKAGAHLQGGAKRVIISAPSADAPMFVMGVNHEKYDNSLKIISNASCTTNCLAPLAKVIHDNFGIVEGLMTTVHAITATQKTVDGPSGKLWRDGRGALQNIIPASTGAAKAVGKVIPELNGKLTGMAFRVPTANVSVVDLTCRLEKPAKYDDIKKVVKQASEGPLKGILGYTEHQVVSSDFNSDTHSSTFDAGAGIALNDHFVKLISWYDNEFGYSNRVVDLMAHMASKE

Sequence of Melanin-concentrating hormone receptor 1 (Q99705 whole entry): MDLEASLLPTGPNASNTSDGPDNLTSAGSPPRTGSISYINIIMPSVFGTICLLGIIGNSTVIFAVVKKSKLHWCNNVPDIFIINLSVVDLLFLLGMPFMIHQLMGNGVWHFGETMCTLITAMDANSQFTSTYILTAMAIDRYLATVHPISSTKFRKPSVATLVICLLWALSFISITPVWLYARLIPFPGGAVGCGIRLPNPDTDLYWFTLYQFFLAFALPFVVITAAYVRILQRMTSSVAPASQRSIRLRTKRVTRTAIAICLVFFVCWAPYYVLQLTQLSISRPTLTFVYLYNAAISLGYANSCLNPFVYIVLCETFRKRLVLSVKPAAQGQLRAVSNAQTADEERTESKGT
T4 sequence (Q00975 whole entry): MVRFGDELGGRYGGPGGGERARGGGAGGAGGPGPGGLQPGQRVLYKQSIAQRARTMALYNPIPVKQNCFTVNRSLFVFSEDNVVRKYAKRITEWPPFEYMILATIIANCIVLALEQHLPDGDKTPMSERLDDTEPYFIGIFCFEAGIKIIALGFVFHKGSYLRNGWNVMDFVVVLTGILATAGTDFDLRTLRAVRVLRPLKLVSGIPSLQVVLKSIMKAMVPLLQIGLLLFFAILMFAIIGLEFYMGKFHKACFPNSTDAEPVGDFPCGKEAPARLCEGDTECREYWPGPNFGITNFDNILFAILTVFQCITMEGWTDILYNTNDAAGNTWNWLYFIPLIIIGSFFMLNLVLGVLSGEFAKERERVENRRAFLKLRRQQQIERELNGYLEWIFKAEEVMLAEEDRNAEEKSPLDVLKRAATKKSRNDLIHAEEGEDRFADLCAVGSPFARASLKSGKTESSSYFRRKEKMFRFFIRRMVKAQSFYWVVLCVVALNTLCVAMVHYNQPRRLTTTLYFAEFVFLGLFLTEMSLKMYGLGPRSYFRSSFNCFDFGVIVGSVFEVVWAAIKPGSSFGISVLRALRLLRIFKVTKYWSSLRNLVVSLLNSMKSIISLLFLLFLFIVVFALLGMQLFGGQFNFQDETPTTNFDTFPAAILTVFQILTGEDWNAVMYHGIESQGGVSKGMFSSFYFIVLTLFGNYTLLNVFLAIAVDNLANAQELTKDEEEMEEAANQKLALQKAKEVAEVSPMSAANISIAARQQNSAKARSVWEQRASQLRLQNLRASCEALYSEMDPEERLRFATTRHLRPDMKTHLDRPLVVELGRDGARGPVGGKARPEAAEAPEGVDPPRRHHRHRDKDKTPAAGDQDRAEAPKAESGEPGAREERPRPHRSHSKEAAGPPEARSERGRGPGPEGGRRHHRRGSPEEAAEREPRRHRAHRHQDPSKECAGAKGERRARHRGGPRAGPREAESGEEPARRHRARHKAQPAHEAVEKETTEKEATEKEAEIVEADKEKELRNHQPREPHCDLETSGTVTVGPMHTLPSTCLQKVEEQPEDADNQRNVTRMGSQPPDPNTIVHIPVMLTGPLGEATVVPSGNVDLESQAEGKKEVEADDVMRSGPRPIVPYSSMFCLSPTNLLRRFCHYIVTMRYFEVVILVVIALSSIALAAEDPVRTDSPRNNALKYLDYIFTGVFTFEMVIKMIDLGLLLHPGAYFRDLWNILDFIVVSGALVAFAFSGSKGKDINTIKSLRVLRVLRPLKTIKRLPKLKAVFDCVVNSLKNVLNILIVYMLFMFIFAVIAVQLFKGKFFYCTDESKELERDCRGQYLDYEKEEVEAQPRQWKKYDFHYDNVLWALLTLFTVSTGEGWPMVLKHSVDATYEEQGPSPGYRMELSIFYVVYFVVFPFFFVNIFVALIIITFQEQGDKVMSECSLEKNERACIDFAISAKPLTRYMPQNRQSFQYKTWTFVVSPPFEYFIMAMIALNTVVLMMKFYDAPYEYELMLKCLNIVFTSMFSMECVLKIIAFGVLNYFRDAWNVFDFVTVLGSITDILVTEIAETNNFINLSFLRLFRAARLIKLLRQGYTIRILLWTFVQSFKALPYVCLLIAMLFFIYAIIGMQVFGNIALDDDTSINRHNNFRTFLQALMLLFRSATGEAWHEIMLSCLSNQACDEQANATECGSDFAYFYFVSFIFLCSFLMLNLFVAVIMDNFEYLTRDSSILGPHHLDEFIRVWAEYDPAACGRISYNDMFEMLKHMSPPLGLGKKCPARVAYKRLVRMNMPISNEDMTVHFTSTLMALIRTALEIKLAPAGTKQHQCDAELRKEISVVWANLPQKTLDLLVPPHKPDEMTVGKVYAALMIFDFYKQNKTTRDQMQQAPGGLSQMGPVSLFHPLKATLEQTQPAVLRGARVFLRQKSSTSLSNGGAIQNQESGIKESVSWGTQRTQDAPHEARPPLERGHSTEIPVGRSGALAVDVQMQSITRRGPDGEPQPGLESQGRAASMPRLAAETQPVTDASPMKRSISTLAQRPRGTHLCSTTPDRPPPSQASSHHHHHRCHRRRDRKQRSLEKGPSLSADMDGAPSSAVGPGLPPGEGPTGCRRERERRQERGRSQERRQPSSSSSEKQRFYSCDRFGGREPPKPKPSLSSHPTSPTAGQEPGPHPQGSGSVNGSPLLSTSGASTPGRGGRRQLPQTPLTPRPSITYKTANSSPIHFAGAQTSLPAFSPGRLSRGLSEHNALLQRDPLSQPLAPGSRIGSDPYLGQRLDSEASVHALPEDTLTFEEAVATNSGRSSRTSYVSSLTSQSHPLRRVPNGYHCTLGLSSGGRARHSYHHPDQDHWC
T4 sequence (Q02410 whole entry): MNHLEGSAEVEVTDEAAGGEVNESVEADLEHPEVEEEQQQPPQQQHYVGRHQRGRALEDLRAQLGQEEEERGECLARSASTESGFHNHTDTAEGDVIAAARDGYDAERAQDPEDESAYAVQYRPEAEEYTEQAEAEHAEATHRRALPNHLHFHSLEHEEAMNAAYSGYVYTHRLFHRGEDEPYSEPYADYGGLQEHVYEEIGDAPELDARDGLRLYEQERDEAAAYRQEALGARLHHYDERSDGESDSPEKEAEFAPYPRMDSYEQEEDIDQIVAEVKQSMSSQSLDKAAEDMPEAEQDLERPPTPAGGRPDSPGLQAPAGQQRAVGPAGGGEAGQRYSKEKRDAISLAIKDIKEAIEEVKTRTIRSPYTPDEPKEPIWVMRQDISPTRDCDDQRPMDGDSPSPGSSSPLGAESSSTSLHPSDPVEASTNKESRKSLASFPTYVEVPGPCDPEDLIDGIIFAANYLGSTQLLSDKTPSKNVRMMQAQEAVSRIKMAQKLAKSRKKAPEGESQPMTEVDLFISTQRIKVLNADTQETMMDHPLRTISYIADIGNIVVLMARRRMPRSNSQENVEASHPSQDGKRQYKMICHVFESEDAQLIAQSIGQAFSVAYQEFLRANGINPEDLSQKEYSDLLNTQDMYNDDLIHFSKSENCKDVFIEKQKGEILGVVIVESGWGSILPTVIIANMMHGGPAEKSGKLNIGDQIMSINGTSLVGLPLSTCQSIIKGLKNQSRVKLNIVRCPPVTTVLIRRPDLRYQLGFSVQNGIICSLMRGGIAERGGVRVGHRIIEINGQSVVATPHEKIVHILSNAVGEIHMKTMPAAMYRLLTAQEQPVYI
T3 sequence (P11940 whole entry, the tested form may be a part): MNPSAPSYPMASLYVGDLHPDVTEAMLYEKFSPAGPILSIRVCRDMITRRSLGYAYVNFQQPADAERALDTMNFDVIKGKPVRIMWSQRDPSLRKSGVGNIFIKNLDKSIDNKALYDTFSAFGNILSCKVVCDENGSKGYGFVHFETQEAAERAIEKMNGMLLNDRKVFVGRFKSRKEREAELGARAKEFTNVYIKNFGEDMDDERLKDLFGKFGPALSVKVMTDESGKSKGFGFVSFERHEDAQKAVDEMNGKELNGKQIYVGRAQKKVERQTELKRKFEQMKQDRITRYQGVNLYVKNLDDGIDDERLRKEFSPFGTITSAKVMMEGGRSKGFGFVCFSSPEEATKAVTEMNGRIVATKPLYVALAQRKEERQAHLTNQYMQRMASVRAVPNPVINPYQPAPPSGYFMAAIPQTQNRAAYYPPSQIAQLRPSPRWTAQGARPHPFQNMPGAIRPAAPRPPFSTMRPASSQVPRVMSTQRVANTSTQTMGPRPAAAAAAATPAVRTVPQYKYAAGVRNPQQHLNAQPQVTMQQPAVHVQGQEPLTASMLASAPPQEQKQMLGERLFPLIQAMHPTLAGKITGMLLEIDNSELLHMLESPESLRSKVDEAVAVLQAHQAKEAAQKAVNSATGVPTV
Sequence of Cytochrome P450 2D6 (P10635 whole entry): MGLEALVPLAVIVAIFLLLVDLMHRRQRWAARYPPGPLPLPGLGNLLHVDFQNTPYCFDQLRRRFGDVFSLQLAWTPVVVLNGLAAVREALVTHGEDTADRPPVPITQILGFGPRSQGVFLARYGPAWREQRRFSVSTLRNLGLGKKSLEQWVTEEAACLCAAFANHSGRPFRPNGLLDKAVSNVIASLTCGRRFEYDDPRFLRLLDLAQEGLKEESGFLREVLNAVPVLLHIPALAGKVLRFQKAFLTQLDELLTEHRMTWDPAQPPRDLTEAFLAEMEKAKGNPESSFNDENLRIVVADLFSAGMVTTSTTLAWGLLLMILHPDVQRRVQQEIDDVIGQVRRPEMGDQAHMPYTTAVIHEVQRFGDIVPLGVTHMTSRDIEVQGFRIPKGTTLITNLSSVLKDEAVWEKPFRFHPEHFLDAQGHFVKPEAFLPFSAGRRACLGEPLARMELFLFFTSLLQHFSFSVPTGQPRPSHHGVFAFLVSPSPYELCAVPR

With CN1CCc2cc3c(cc2[C@@H]1[C@H]1OC(=O)c2c1ccc1c2OCO1)OCO3 the AC50 (Cytochrome P450 2D6) was 10 µM (inconclusive).

In the case of COc1ccc(-n2c(=O)c3ccccc3n(CC(=O)NC3CCCCC3)c2=O)cc1OC, the EC50 [1] was > 100 µM (not active).

With O=c1cccc2n1C[C@@H]1C[C@H]2CN2CCCC[C@H]12 the AC50 (Cytochrome P450 2D6) was 25.1 µM (inconclusive).

For OCCN(CCO)Cc1nc(O)c2c(n1)-c1ccccc1CC21CCCCC1, the EC50 [1] was 76.4 µM (not active).

With CS(=O)(=O)C1=NSC2=NC(=O)/C(=C\c3ccc(OS(=O)(=O)c4ccccc4)cc3)C(=N)N21 the IC50 [2] was 39.3 µM (active), the IC50 [3] was 4.17 µM (active) and the IC50 [4] was 5.01 µM (active).

In the case of CCCCC(=O)NC(=S)Nc1ccccc1C(=O)Nc1ccccc1, the IC50 [5] was > 66.6 µM (inactive), the IC50 (Beta-galactosidase) was > 66.6 µM (inactive) and the IC50 [6] was > 66 µM (inactive). For the same molecule, the IC50 [7] was > 66 µM (inactive).

With COc1ccc(NC(=O)CSc2nc3ccccc3c(=O)n2-c2ccc(F)cc2)cc1 the IC50 [8] was > 66.6 µM (active).

With COc1ccc(S(=O)(=O)N(C(=O)c2ccncc2)c2ccc3oc4c(c3c2)CCCC4)cc1 the CC50 [9] was > 40 µM (active).

In the case of CCN1C(=O)C(=CNNC(=O)c2ccccc2)C(=O)N(CC)C1=S, the CC50 [9] was > 40 µM (active).

In the case of COc1ccc(Oc2c(Cl)cnn(-c3cccc(Cl)c3)c2=O)cc1, the IC50 [10] was 10.5 µM (inactive).

For COc1ccc(Oc2c(Cl)cnn(-c3cccc(C)c3)c2=O)cc1, the IC50 [10] was 5.4 µM (active).

For COc1ccc(/N=C2\S/C(=C\c3ccc(OC(C)C(=O)O)c(OC)c3)C(=O)N2CCc2c[nH]c3ccccc23)cc1 (stereo not given), the EC50 [11] was 1.86 µM (active), the IC50 [12] was 15.8 µM (active) and the EC50 (Streptokinase A) was > 50 µM (not active). The IC50 [2] was > 50 µM (active), the IC50 [13] was > 50 µM (inactive) and the IC50 [14] was 7.55 µM (active). For the same molecule, the EC50 (Streptococcus) was 4.41 µM (active).

For COCCNC(=O)c1cc(-c2ccc(Cl)cc2Cl)n[nH]1, the IC50 [15] was > 10 µM (inconclusive).

With CCOc1cc(C)c(Cl)cc1S(=O)(=O)Nc1cccnc1 the IC50 [15] was > 100 µM (not active).
